# From PubChem BioAssay (NCI)
#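 Briefly, cells in 96-well plates were exposed to five compound concentrations for 48 h, and endpoints were estimated by linear interpolation. GI50 is the concentration that inhibits growth by half. TGI is the concentration that stops growth completely.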 Peptide text beside a SMILES is read from it. * marks the point of attachment. X34 = O=C(c1ccc(-c2ccc(Cl)cc2Cl)o1)*
# Legend:
# Assay in all cases: NCI tumour cell line growth inhibition, 48 h
# MDA-N = system: MDA-N
# DLD-1 colon = system: DLD-1 colon
# DMS 114 small cell lung = system: DMS 114 small cell lung
# DMS 273 small cell lung = system: DMS 273 small cell lung
# HOP-18 NSCLC = system: HOP-18 NSCLC
# KM20L2 colon = system: KM20L2 colon
# M19-MEL melanoma = system: M19-MEL melanoma
# P388 leukemia = system: P388 leukemia
# P388/ADR leukemia = system: P388/ADR leukemia
# SN12K1 renal = system: SN12K1 renal
# SNB-78 CNS = system: SNB-78 CNS
# XF 498 CNS = system: XF 498 CNS
# LXFL 529 NSCLC = system: LXFL 529 NSCLC
# RXF-631 renal = system: RXF-631 renal
structure (smiles),measurement,setting,value
CC(C)CNCCc1ccccn1,TGI,MDA-N,> 100 µM
O=C1CCCCN1,TGI,DLD-1 colon,> 1120 µM
same,TGI,DMS 114 small cell lung,> 1120 µM
same,TGI,DMS 273 small cell lung,> 1120 µM
same,TGI,HOP-18 NSCLC,> 1120 µM
same,TGI,KM20L2 colon,> 1120 µM
same,TGI,M19-MEL melanoma,> 1120 µM
same,TGI,P388 leukemia,> 707 µM
same,TGI,P388/ADR leukemia,> 1120 µM
same,TGI,SN12K1 renal,> 1120 µM
same,TGI,SNB-78 CNS,> 1120 µM
same,TGI,XF 498 CNS,> 112 µM
CC1=C[C@H]([C@H]2C=C(C)C(C(N)=O)=CN2Cc2c(Cl)cccc2Cl)N(Cc2c(Cl)cccc2Cl)C=C1C(N)=O,TGI,MDA-N,> 75 µM
COc1ccc(C(=O)c2nc3ccccc3nc2N2CCN(c3ccccc3)CC2)cc1OC,TGI,MDA-N,> 100 µM
C1=CC=C2NCCc3cccc(c3)CCNC3=CC=CC=CC3=NCCCCCCN=C2C=C1,TGI,DLD-1 colon,> 100 µM
same,TGI,DMS 114 small cell lung,26.1 µM
same,TGI,DMS 273 small cell lung,21.9 µM
same,TGI,KM20L2 colon,24.8 µM
same,TGI,LXFL 529 NSCLC,23.6 µM
same,TGI,M19-MEL melanoma,30.3 µM
same,TGI,RXF-631 renal,28 µM
same,TGI,SNB-78 CNS,> 100 µM
COC(=O)C(CC(C)C)NC(=O)C(Cc1ccccc1)NC(=O)C1CCCN1C(=O)C(CO)NC(=O)c1ccc(-c2ccc(Cl)cc2Cl)o1 (centres undefined) (X34-SPFL-OMe; configuration not given here),TGI,MDA-N,> 100 µM
CC(=O)OCCCCN1C(=O)CSc2ccccc21,TGI,MDA-N,> 100 µM
COc1nc2ccc(CNc3ccc(C(=O)NC(CCC(=O)O)C(=O)O)cc3)cc2nc1OC (centres undefined),TGI,MDA-N,> 100 µM
CCCCC(=O)c1c(O)ccc2c(C)cc(=O)oc12,TGI,MDA-N,> 100 µM
CN1c2c(nc(N)[nH]c2=O)NCC1CCNc1ccc(C(=O)NC(CCC(=O)O)C(=O)O)cc1 (centres undefined),TGI,DLD-1 colon,2350 µM
same,TGI,DMS 114 small cell lung,1770 µM
same,TGI,DMS 273 small cell lung,1560 µM
same,TGI,HOP-18 NSCLC,2950 µM
same,TGI,KM20L2 colon,2280 µM
same,TGI,M19-MEL melanoma,778 µM
same,TGI,MDA-N,430 µM
same,TGI,P388 leukemia,651 µM
same,TGI,P388/ADR leukemia,1410 µM
same,TGI,SN12K1 renal,1810 µM
same,TGI,SNB-78 CNS,2660 µM
same,TGI,XF 498 CNS,2150 µM
CC[C@@H]1CSC(/C=C/C2OC3OC(C)(C)OC3C3OC(C)(C)OC23)=N1 (some centres undefined),TGI,MDA-N,21.3 µM
CCOc1ccccc1Nc1ccc(N)cc1S(=O)(=O)O,TGI,MDA-N,> 100 µM
CC(C)C1=CC2=CC[C@@H]3[C@](C)(CCC[C@@]3(C)C(=O)O)[C@H]2CC1,TGI,DLD-1 colon,> 100 µM
same,TGI,DMS 114 small cell lung,> 100 µM
same,TGI,DMS 273 small cell lung,> 100 µM
same,TGI,HOP-18 NSCLC,> 100 µM
same,TGI,KM20L2 colon,> 100 µM
same,TGI,LXFL 529 NSCLC,> 100 µM
same,TGI,M19-MEL melanoma,> 100 µM
same,TGI,RXF-631 renal,> 100 µM
same,TGI,SNB-78 CNS,> 96.2 µM
same,TGI,XF 498 CNS,> 100 µM
O=C1/C(=C/C=C/c2ccccc2)N=C(c2ccccc2)N1c1ccc(S(=O)(=O)Nc2nccs2)cc1,TGI,MDA-N,> 100 µM
N#Cc1ccc([N+](=O)[O-])cc1NC(N)=S,TGI,DMS 273 small cell lung,> 100 µM
same,TGI,HOP-18 NSCLC,> 100 µM
same,TGI,KM20L2 colon,> 100 µM
same,TGI,LXFL 529 NSCLC,32.6 µM
same,TGI,M19-MEL melanoma,> 100 µM
same,TGI,RXF-631 renal,> 100 µM
same,TGI,SNB-78 CNS,> 100 µM
same,TGI,XF 498 CNS,> 100 µM
CC[C@@]1(O)C[C@H](OC2CC(N(C)C)C(OC3CC(O)C(OC4CCC(=O)C(C)O4)C(C)O3)C(C)O2)c2c(cc3c(c2O)C(=O)c2c(O)cccc2C3=O)C1C(=O)OC (some centres undefined),TGI,DLD-1 colon,5.46 µM
same,TGI,DMS 114 small cell lung,0.474 µM
same,TGI,HOP-18 NSCLC,1.85 µM
same,TGI,KM20L2 colon,4.64 µM
same,TGI,LXFL 529 NSCLC,1.68 µM
same,TGI,M19-MEL melanoma,0.799 µM
same,TGI,MDA-N,0.149 µM
same,GI50,XF 498 CNS,0.0025 µM
same,TGI,XF 498 CNS,0.294 µM
CC(=O)OCC1=CC2OC(=O)C3=COC(OC4OC(CO)C(O)C(O)C4O)C1C32 (centres undefined),TGI,MDA-N,> 100 µM
C=CCn1c(=O)c(Br)nn(CCOCP(=O)(OCC)OCC)c1=O,TGI,MDA-N,> 100 µM
Nc1ncnc2c1ncn2[C@@H]1O[C@H](COP(=O)(O)OP(=O)(O)OC[C@H]2O[C@@H](OCCCO)[C@H](O)[C@@H]2O)[C@@H](O)[C@H]1O,TGI,MDA-N,> 100 µM
O=S(=O)(O)c1cc(S(=O)(=O)O)c2c(N=Nc3ccc(S(=O)(=O)O)c4ccccc34)c(O)ccc2c1,TGI,MDA-N,> 100 µM
CN(C)c1ccc(C2CC(=O)CC(c3ccc(N(C)C)cc3)C23C(=O)NC(=S)NC3=O)cc1 (centres undefined),TGI,MDA-N,> 100 µM
O=C1NC(=NCc2ccc(F)cc2)N/C1=C\c1ccccc1Cl,TGI,MDA-N,40.3 µM
